Laboratory results as given in US9783859B2, “Method of screening and quantifying various enzymatic activities using artificial genetic circuits” (KOREA RESEARCH INSTITUTE OF BIOSCIENCE AND BIOTECHNOLOGY, priority 2009, dated 2017).

Tests used:
[1] = tested on: artificial genetic circuit pGESS-EGFP (I) (dmpR); test: signals of artificial genetic circuit for various phenols, FACS fluorescence; type: cell-based, E. coli DH5α; conditions: 100 uM of each phenol derivative, 30° C. 18 hours
From the text: Whether the artificial genetic circuit senses the following phenol derivatives and the sensitivities of the genetic circuit to the phenol derivatives were examined: o-nitrophenol, m-nitrophenol, p-nitrophenol, o-chlorophenol, m-chlorophenol, p-chlorophenol, salicylic acid, 2-aminophenol, 2-methoxyphenol, o-cresol, m-cresol, p-cresol, catechol, resorcinol, 2-fluorophenol, 2-iodophenol, 2,4-dimethylphenol, 2,5-dimethylphenol, 3,4-dimethylphenol, 2,3-dimethylphenol, 3,5-dimethylphenol, 2,4-dichlorophenol, 2,5-dichlorophenol, 2,3-dichlorophenol, 2,6-dichlorophenol, 3,4-dichlorophenol, 3,5-dichlorophenol, 2,4-dinitrophenol, 3-methylcatechol, 2-ethylphenol, 3-ethylphenol, and benzene. Specifically, a single colony of E. coli DH5α containing pGESS-EGFP (I) was inoculated into LB liquid medium containing 50 μg/ml of ampicillin and was cultured overnight at 37° C. The culture was inoculated into LB medium containing 50 μg/ml of ampicillin to a concentration of 1% (v/v) and was cultured at 37° C. for about 8 hours until the OD600 of the cells reached 3. Then, 100 uM of each of the phenol derivatives was added to the culture which was then cultured with shaking at 30° C. for 18 hours. 100 μl of each culture was extracted, and the distribution of fluorescence in individual cells was examined by FACS. Each of the samples was tested three times, and the measurements were averaged.

[2] = tested on: artificial genetic circuit pGESS-Cm (II); test: response of chloramphenicol resistance reporter circuit to phenol derivatives, OD600; type: cell-based, E. coli EPI300; conditions: 100 μM of each phenol derivative, 30 μg/ml chloramphenicol, 37° C. 8 hours
Description: In the case of the artificial genetic circuit comprising chloramphenicol resistance gene as the reporter, whether the genetic circuit responds to the substrates was examined. […] The culture was inoculated into 50 μg/ml ampicillin-containing LB liquid medium to a concentration of 1% (v/v), and then 30 μg/ml of chloramphenicol and 100 μM of each of the phenol derivatives were added thereto and the cells were cultured with shaking at 37° C. for 8 hours. Then, the OD600 of the cells was measured, thereby examining whether the genetic circuit responded to the phenol derivatives. As a control group, cells containing 100 μM of phenol without containing chloramphenicol were used.

[3] = tested on: artificial genetic circuit pGESS-EGFP (I) (dmpR); type: cell-based, E. coli DH5α; conditions: 0.1-1000 μM tested, overnight at 30° C., LB medium
Description: The signals of the artificial genetic circuit for phenolic compounds were quantitatively analyzed. Specifically, a single colony of E. coli DH5α containing pGESS-EGFP (I) was inoculated into LB liquid medium containing 50 μg/ml of ampicillin and was cultured with shaking overnight at 37° C. The culture was inoculated into LB medium containing 50 μg/ml of ampicillin to a concentration of 1% (v/v), and 0.1-1000 μM of each of phenol, o-chlorophenol, m-chlorophenol, o-nitrophenol, catechol and resorcinol was added thereto and cultured with shaking overnight at 30° C. The cells were lysed, and the supernatant was analyzed by a fluorescence spectrometer (Varian, Australia), thereby measuring the fluorescence of GFP at 510 nm.

| SMILES | response of the artificial genetic circuit (fluorescence, FACS) [1] | response of the artificial genetic circuit (chloramphenicol resistance, OD600) [2] | concentration from which fluorescence started to be sensed [3] [µM] |
| --- | --- | --- | --- |
| Oc1cccc(Cl)c1Cl [2,3-dichlorophenol] | weakly responded |  |  |
| Cc1cccc(O)c1C [2,3-dimethylphenol] | weakly responded | strongly responded |  |
| Oc1cc(Cl)ccc1Cl [2,5-dichlorophenol] | weakly responded |  |  |
| Cc1ccc(C)c(O)c1 [2,5-dimethylphenol] | weakly responded |  |  |
| Nc1ccccc1O [2-aminophenol] | strongly responded |  |  |
| CCc1ccccc1O [2-ethylphenol] | strongly responded | strongly responded |  |
| Oc1ccccc1F [2-fluorophenol] | strongly responded | strongly responded |  |
| Oc1ccccc1I [2-iodophenol] | strongly responded | strongly responded |  |
| COc1ccccc1O [2-methoxyphenol] | strongly responded | strongly responded |  |
| Oc1ccccc1O [catechol] | strongly responded | strongly responded | 10 |
| Oc1cccc(Cl)c1 [m-chlorophenol] | weakly responded | strongly responded | 1 |
| Cc1cccc(O)c1 [m-cresol] | strongly responded | strongly responded |  |
| O=[N+]([O-])c1cccc(O)c1 [m-nitrophenol] | weakly responded | strongly responded |  |
| Oc1ccccc1Cl [o-chlorophenol] | strongly responded | strongly responded | ≤ 0.1 |
| Cc1ccccc1O [o-cresol] | strongly responded | strongly responded |  |
| O=[N+]([O-])c1ccccc1O [o-nitrophenol] | strongly responded | strongly responded | 10 |
| Oc1ccc(Cl)cc1 [p-chlorophenol] | weakly responded | weakly responded to or did not respond |  |
| Cc1ccc(O)cc1 [p-cresol] | weakly responded | weakly responded to or did not respond |  |
| O=[N+]([O-])c1ccc(O)cc1 [p-nitrophenol] | did not respond | weakly responded to or did not respond |  |
| Oc1cccc(O)c1 [resorcinol] |  |  | 100 |
